Experimental findings from paper PMC6537893 (Biochemistry, 2019) are described below.

The target in the experiment is T1, GoxA (Pseudoalteromonas luteoviolacea, UniProt A0A161XU12).
T1 sequence (A0A161XU12 1-816): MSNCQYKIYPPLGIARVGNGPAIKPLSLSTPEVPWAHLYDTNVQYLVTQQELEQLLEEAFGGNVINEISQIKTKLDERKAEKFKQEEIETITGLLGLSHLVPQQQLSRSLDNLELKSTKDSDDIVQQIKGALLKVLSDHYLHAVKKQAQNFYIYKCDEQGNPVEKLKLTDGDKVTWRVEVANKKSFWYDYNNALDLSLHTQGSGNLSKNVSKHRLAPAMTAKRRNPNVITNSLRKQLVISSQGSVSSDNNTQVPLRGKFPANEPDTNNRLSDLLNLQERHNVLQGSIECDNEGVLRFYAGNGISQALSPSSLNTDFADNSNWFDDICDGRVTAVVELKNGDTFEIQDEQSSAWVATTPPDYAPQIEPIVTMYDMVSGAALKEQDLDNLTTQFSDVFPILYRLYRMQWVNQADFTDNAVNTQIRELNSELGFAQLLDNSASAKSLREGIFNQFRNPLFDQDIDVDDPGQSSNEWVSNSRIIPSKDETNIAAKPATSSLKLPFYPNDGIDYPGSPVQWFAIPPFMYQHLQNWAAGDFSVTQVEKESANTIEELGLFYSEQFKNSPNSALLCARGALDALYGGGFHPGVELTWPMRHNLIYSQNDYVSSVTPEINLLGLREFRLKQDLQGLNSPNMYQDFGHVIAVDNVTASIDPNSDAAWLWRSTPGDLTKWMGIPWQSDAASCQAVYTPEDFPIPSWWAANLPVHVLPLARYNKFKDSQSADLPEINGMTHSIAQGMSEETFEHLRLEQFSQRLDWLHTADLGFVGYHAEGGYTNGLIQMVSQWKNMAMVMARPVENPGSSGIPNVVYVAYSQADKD
Put plainly: anaerobic absorbance titration at […] nm, fit to allosteric binding equation.

Molecule `NCC(=O)O` [glycine] came in with a dissociation constant Kd of 103 ± 3 µM.

One may read the Kd as the constant that tells how readily two partners part at equilibrium.
